# Measured values from patent US20250108119A1, “NOVEL STEROID PAYLOADS, STEROID LINKERS, ADCs CONTAINING AND USE THEREOF” (IMMUNEXT, INC., priority 2021, published 2025).
# Assays:
# FKBP5 = FKBP5 transcription in peritoneal resident macrophages (PRM) and spleen cells after in vivo treatment; design: species or system hVISTA mice; conditions: linker payloads as anti-VISTA conjugates
# human PBMC [1] = test: Identification and quantification of released payload in human PBMC (MS); type: in vitro ADME; conditions: 4h, second study
# Procedure: In all the following experiments, human PBMC, isolated from 1 healthy donor per study, were treated with exemplary anti-VISTA glucocorticoid conjugates according to the invention to allow identification and quantification of the released payload.
# In the present experiments, after incubating PBMC with glucocorticoid (GC) antibody drug conjugates (ADC) for 4h, cells were harvested and assessed for both FKBP5 transcription induction via quantitative real time PCR (qPCR) as well as assessed via mass spectrometry (MS) for released payload identification and quantification.
# Isolated PBMCs were resuspended in RPMI 1640 containing 10% human AB serum, 10 mM Hepes, 1× Penicillin/Streptomycin/L-Glutamine (assay media).
# PBMCs from 1 donor were washed 2× in PBS, and then resuspended at 1×10^7/mL in media. […]
# Remaining cells for each treatment were dived into aliquots representing 50 million cells per aliquot (for metabolite quantification only one aliquot per condition was generated). […]
# Media was removed from each cell pellet with the media then set aside at −80C until it could be assessed for the concentration of effluxed payload. […]
# Briefly, pre-chilled 70% ACN (extraction buffer) was added to the PBMC pellets for extraction. […] was injected onto the LCMS (Luna C18 (2) column, Thermo Scientific Q Exactive Hybrid Quadrupole Orbitrap) and resulting masses assessed. […]
# human PBMC [2] = test: Cytokine production (IL-1β, IL-6) at 24 hr by human PBMC incubated with 1 ng/mL LPS; type: cell-based; conditions: anti-VISTA conjugates, serial dilutions with respect to total ADC concentration (20-0.003 μg/mL), equivalent or reduced DAR
# Outline: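 Human PBMC were stimulated with 1 ng/mL LPS together with serial dilutions of steroid payloads or glucocorticoid conjugates, spanning up to 8,000 nM down to 0.032 nM depending on the series. IL-1β and IL-6 were measured at 24 hr from technical duplicates, with 1-2 donors. Values above the ULOQ were extrapolated.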
compound,measurement,setting,value
"C[C@]12C=CC(=O)C=C1CC[C@@H]1[C@@H]2[C@@H](O)C[C@@]2(C)[C@H]1C[C@H]1O[C@@H](c3ccc(CC4CC5(C4)CC(NC(=O)[C@H](CCC(=O)O)NC(=O)CNC(=O)CBr)C5)cc3)O[C@]12C(=O)CO (stereo partly drawn) [INX V, (S)-4-(2-(2-bromoacetamido)acetamido)-5-((6-(4-((6aR,6bS,7S,8aS,8bS,10R,11aR,12aS,12bS)-7-hydroxy-8b-(2-hydroxyacetyl)-6a,8a-dimethyl-4-oxo-2,4,6a,6b,7,8,8a,8b,11a,12,12a,12b-dodecahydro-1H-naphtho[2′,1′:4,5]indeno[1,2-d][1,3]dioxol-10-yl)benzyl)spiro[3.3]heptan-2-yl)amino)-5-oxopentanoic acid]",FKBP5 induction when dosed 14 days early (conclusions),FKBP5,still display significant potency when dosed 14 days early in regard to FKBP5 induction
same,released payload relative to INX P / INX231P (ng/ng),human PBMC [1],235 x
same,potency in reducing IL-1β production,human PBMC [2],enhanced potency
